Reference: patent US8877800B2, “Kappa-opiate agonists for the treatment of diarrhea-predominant irritable bowel syndrome” (Tioga Pharmaceuticals, Inc., priority 2007, dated 2014)

Legend:
[1] = system: gastric and colon distention; details: animal models; cited from earlier work
[2] = cited from earlier work
[3] = system: IBS-D, IBS-C and IBS-A patients; test: Example 2: 12-week randomized, double-blind, dose-ranging, placebo-controlled fixed-dose asimadoline study in IBS; format: in vivo, human; details: for urgency: all three months; for improvement over placebo in percent number of months with adequate relief / percent number of months with adequate relief of IBS pain or discomfort: all IBS subjects with moderate or severe pain
Description: Diarrhea-predominant (IBS-D), constipation-predominant (IBS-C), and alternating IBS (IBS-A) patients were recruited from 120 sites in the United States. Patients underwent a two week screening period to ensure adequate symptoms and compliance with the interactive voice response system (IVRS) data collection system, followed by twelve weeks of treatment and a four week follow-up period. Patients received identical appearing placebo, 0.15 mg, 0.5 mg or 1.0 mg asimadoline tablets b.i.d. for the 12 week treatment period. During screening, treatment and follow-up patients entered data every day on the IVRS.
The primary endpoint was the number of months a patient was a responder for adequate relief, where the primary measure was the question, “In the past 7 days have you had adequate relief of your IBS pain or discomfort?” This measure was asked once every 7 days and a monthly responder replied “yes” at least 3 weeks per month. Numerous secondary endpoints, abdominal pain or discomfort, stool frequency, urgency, bloating, stool consistency, adequate relief of IBS symptoms and straining were also collected. Additionally, adverse clinical events, laboratory test data and electrocardiograms (ECGs) were collected.
Of the 596 subjects who were randomized, 344 reported baseline pain scores of 2.0 or higher. The pain score was a self reported score on a scale of 0-3, where 0=no pain, 1=mild pain, 2=moderate pain and 3=severe pain Subjects having scores of 2.0 or higher were categorized as having moderate or severe pain. Of the 344 moderate or severe pain subjects, 104 were classified as having IBS-D, 114 IBS-A and 126 IBS-C.

delta opiate receptor = delta opiate receptor (Homo sapiens, UniProt P41143); test: selectivity: IC50 at delta opiate receptor relative to kappa; format: binding; details: ratio kappa:mu:delta
patients with IBS = test: Example 1: randomized, double-blind, placebo controlled 4-week on-demand asimadoline study in participants with IBS; details: for Δ Pain intensity (mean ± SE): VAS, 2 hours after first dose
mu opiate receptor = mu opiate receptor (Homo sapiens, UniProt P35372); test: selectivity: IC50 at mu opiate receptor relative to kappa; format: binding; details: ratio kappa:mu:delta
[4] = cited from earlier work; remark: listed apart in the source
[5] = moisture, heat, aerial oxygen, light; cited from earlier work
kappa-opiate receptor = kappa-opiate receptor (Homo sapiens, UniProt P41145); details: read-out: affinity for the kappa-opiate receptor, IC50; cited from earlier work
IBS patients = details: Bardhan et al., Aliment Pharmacol Ther 2000; 14:23-34; cited from earlier work

kappa-opiate receptor, sequence (P41145 whole entry): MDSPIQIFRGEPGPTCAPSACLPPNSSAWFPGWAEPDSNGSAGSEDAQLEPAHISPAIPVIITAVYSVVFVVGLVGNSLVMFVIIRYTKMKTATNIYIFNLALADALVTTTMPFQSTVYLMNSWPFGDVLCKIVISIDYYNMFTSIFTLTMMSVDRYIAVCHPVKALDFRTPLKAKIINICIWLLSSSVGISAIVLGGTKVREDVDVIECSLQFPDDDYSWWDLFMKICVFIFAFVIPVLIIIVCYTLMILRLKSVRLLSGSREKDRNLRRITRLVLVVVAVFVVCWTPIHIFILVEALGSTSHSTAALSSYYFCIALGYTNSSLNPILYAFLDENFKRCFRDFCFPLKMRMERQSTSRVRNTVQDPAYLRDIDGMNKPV
mu opiate receptor, sequence (P35372 whole entry): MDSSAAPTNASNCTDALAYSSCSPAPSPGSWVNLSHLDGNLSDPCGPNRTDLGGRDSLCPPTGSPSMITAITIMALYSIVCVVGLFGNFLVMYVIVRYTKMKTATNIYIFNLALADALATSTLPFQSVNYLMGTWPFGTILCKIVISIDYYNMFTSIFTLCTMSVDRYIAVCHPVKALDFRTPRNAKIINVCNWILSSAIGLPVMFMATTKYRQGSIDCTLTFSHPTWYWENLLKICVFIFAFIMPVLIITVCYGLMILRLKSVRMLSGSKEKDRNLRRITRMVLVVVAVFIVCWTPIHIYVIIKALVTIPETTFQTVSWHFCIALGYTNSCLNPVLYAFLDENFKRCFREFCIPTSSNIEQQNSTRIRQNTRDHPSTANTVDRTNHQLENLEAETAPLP
delta opiate receptor, sequence (P41143 whole entry): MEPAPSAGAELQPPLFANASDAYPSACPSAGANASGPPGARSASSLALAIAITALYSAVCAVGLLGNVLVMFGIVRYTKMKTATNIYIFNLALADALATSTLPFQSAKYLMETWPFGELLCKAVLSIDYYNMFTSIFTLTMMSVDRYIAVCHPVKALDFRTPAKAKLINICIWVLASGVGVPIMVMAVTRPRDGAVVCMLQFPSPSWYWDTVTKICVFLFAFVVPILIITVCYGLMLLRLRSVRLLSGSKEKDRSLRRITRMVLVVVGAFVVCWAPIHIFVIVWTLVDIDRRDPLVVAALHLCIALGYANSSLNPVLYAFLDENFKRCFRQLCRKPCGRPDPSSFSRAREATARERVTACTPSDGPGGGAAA

SMILES: CN(C(=O)C(c1ccccc1)c1ccccc1)[C@H](CN1CC[C@H](O)C1)c1ccccc1.Cl [Asimadoline, N-[(1S)-2-[(3S)-3-hydroxypyrrolidin-1-yl]-1-phenylethyl]-N-methyl-2,2-diphenylacetamide, hydrochloride]
- sensation responses to gastric and colon distention [1]: reduce sensation responses
- bioavailability ([2]; fasting subjects): 50%
- effect of eating on bioavailability ([2]; food interaction studies): eating does not substantially impact bioavailability
- half-life ([2]; in vivo): 2 to 3 h
- penetration of the blood-brain barrier ([2]; in vivo): poor penetration of the blood-brain barrier
- Adverse events: Abdominal pain ([3]; 0.15 mg b.i.d.): 5.4%
- Adverse events: Constipation ([3]; 0.15 mg b.i.d.): 12.8%
- Adverse events: Diarrhea ([3]; 0.15 mg b.i.d.): 13.4%
- Adverse events: Dizziness ([3]; 0.15 mg b.i.d.): 2.7%
- Adverse events: Headache ([3]; 0.15 mg b.i.d.): 9.4%
- Adverse events: Nausea ([3]; 0.15 mg b.i.d.): 5.4%
- Adverse events: Sinusitis ([3]; 0.15 mg b.i.d.): 4.7%
- Adverse events: Abdominal pain ([3]; 0.5 mg b.i.d.): 4.6%
- Adverse events: Constipation ([3]; 0.5 mg b.i.d.): 10.5%
- Adverse events: Diarrhea ([3]; 0.5 mg b.i.d.): 5.9%
- Adverse events: Dizziness ([3]; 0.5 mg b.i.d.): 1.3%
- Adverse events: Headache ([3]; 0.5 mg b.i.d.): 4.6%
- Adverse events: Nausea ([3]; 0.5 mg b.i.d.): 8.6%
- Adverse events: Sinusitis ([3]; 0.5 mg b.i.d.): 2.6%
- Adverse events: Abdominal pain ([3]; 1.0 mg b.i.d.): 4.2%
- Adverse events: Constipation ([3]; 1.0 mg b.i.d.): 7.6%
- Adverse events: Diarrhea ([3]; 1.0 mg b.i.d.): 11.1%
- Adverse events: Dizziness ([3]; 1.0 mg b.i.d.): 2.1%
- Adverse events: Headache ([3]; 1.0 mg b.i.d.): 5.6%
- Adverse events: Nausea ([3]; 1.0 mg b.i.d.): 2.8%
- Adverse events: Sinusitis ([3]; 1.0 mg b.i.d.): 6.3%
- serious clinical or laboratory adverse events related to the treatment ([3]; 0.15, 0.5 or 1.0 mg b.i.d., 12 weeks): No serious clinical or laboratory adverse events
- pain scores ([3]; IBS-A subjects at these dosages): No statistically significant improvement
- percent months with adequate relief of IBS pain or discomfort ([3]; IBS-A, moderate or severe pain, 1.0 mg b.i.d., placebo 27%, p=0.022): 50%
- proportion of months with adequate relief of overall IBS symptoms ([3]; IBS-A, moderate or severe pain, 1.0 mg b.i.d., placebo 30%, p=0.032): 57%
- percentage of monthly responders (adequate relief of pain or discomfort) ([3]; IBS-A, 1.0 mg b.i.d., first month, placebo 19%, p=0.017): 46%
- abdominal pain or discomfort associated with IBS ([3]; IBS-C subjects with moderate or severe pain): no statistically significant improvement
- stool consistency ([3]; IBS-D and IBS-C subjects, any of the three dosages): no statistically significant changes
- bloating ([3]; IBS-D, baseline pain scores ≧2.0, 1.0 mg, second month): statistically significant reductions
- percent months with adequate relief of IBS pain or discomfort ([3]; IBS-D, moderate or severe pain, 0.5 mg b.i.d., placebo 20%, p=0.011): 47%
- proportion of months with adequate relief of overall IBS symptoms ([3]; IBS-D, moderate or severe pain, 0.5 mg b.i.d., placebo 23%, p=0.038): 47%
- urgency ([3]; IBS-D, moderate or severe pain, 0.5 mg): statistically significant reductions
- daily stool frequency ([3]; IBS-D, moderate or severe pain, 0.5 mg, from week 3 to end of treatment): dramatic decrease
- bloating ([3]; IBS-D, moderate or severe pain, 0.5 mg, second and third months): Significant reductions
- proportion of months with adequate relief of overall IBS symptoms ([3]; IBS-D, moderate or severe pain, 1.0 mg b.i.d., placebo 23%, p=0.039): 43%
- urgency ([3]; IBS-D, moderate or severe pain, 1.0 mg): statistically significant reductions
- improvement in the percentage of pain-free days over placebo ([3]; IBS-D, pain scores ≧2.0, 0.5 mg b.i.d., weeks 1-12): ~30%
- results in female versus male IBS-D subjects (adequate relief) ([3]; IBS-D, 0.5 mg): highly similar results
- percentage of monthly responders (adequate relief of pain or discomfort) ([3]; IBS-D, 0.5 mg b.i.d., month 1, placebo 20%, p=0.045): 48%
- percentage of monthly responders (adequate relief of pain or discomfort) ([3]; IBS-D, 0.5 mg b.i.d., month 2, placebo 18%, p=0.010): 52%
- percentage of monthly responders (adequate relief of pain or discomfort) ([3]; IBS-D, 0.5 mg b.i.d., month 3, placebo 27%, p=0.010): 50%
- pain scores ([3]; IBS-D, 0.5 mg, every week starting at week 3 and every month): statistically significant improvement
- more pain free days compared to placebo ([3]; IBS-D, 0.5 mg, over the 3 month study): 21 days
- pain scores ([3]; IBS-D, 1.0 mg, every month and six of the twelve weeks): statistically significant improvement
- improvement over placebo in percent number of months with adequate relief ([3]; 0.5 mg b.i.d.): 17%
- percent number of months with adequate relief of IBS pain or discomfort ([3]; 0.5 mg b.i.d., placebo 23%, p=0.006): 40%
- improvement over placebo in percent number of months with adequate relief ([3]; 1.0 mg b.i.d.): 17%
- percent number of months with adequate relief of IBS pain or discomfort ([3]; 1.0 mg b.i.d., placebo 23%, p=0.005): 40%
- tolerability ([3]; fixed dose, 12 weeks): well tolerated
- ratio of IC50 values, delta relative to kappa (kappa = 1) (delta opiate receptor): ~498
- Proportion of days with adequate relief of symptoms (mean ± SE) (patients with IBS; IBS-A): 0.46 ± 0.08
- change in bowel movements per day, corrected for placebo change from baseline (patients with IBS; IBS-A): increase
- delta pain intensity scores relative to placebo (patients with IBS; IBS-A (alternators), p=0.003): significantly better than placebo
- Δ Pain intensity (mean ± SE) (patients with IBS; IBS-A, unadjusted p = 0.003 vs placebo): 37.8 ± 3.7 mm
- Δ mean # stools, treatment compared to baseline (patients with IBS; IBS-A, on-demand, 4 weeks): 0.0 ± 0.1
- Δ mean ease of passage, treatment compared to baseline (patients with IBS; IBS-A, on-demand, 4 weeks): 0.0 ± 0.1
- Δ mean stool form, treatment compared to baseline (patients with IBS; IBS-A, on-demand, 4 weeks): 0.2 ± 0.2
- Proportion of days with adequate relief of symptoms (mean ± SE) (patients with IBS; IBS-C): 0.11 ± 0.07
- change in bowel movements per day, corrected for placebo change from baseline (patients with IBS; IBS-C): increase
- Δ Pain intensity (mean ± SE) (patients with IBS; IBS-C): 23.8 ± 4.0 mm
- Δ mean ease of passage, treatment compared to baseline (patients with IBS; IBS-C, on-demand, 4 weeks): −0.1 ± 0.1
- Δ mean stool form, treatment compared to baseline (patients with IBS; IBS-C, on-demand, 4 weeks): 0.0 ± 0.2
- Proportion of days with adequate relief of symptoms (mean ± SE) (patients with IBS; IBS-D): 0.45 ± 0.08
- change in bowel movements per day, corrected for placebo change from baseline (patients with IBS; IBS-D): decrease
- Δ Pain intensity (mean ± SE) (patients with IBS; IBS-D): 25.0 ± 2.9 mm
- Δ mean # stools, treatment compared to baseline (patients with IBS; IBS-D, on-demand, 4 weeks): −0.3 ± 0.1
- Δ mean ease of passage, treatment compared to baseline (patients with IBS; IBS-D, on-demand, 4 weeks): −0.1 ± 0.1
- Δ mean stool form, treatment compared to baseline (patients with IBS; IBS-D, on-demand, 4 weeks): −0.1 ± 0.2
- Adverse events: Body as a whole (patients with IBS; on-demand, 4 weeks): 15.00%
- Adverse events: Central and peripheral nervous system (patients with IBS; on-demand, 4 weeks): 48.33%
- Adverse events: Gastrointestinal (patients with IBS; on-demand, 4 weeks): 16.67%
- Adverse events: Genitourinary (patients with IBS; on-demand, 4 weeks): 1.67%
- Adverse events: Musculoskeletal (patients with IBS; on-demand, 4 weeks): 6.67%
- Adverse events: Psychiatric (patients with IBS; on-demand, 4 weeks): 15.00%
- Adverse events: Respiratory (patients with IBS; on-demand, 4 weeks): 33.33%
- serious clinical or laboratory adverse events (patients with IBS; on-demand, 4 weeks): no serious clinical or laboratory adverse events
- tolerability (patients with IBS; on-demand, 4 weeks): well tolerated
- ratio of IC50 values, mu relative to kappa (kappa = 1) (mu opiate receptor): ~501
- solubility in ethanol ([4]; ethanol): 5.4 mg/mL
- solubility in water ([4]; water): 11.6 mg/mL
- stability of the substance [5]: slightly sensitive to moisture, but stable against heat, aerial oxygen and light
- IC50 (kappa-opiate receptor): 1.2 nM

SMILES: Cc1[nH]cnc1CN1CCc2c(c3ccccc3n2C)C1=O [LOTRONEX]
- improvement in the percentage of pain-free days (IBS patients): 10%
